The nature of data set [1]: Stability of curcumin, free versus encapsulated (absorbance at 420 nm). It is filed as physicochemical. As for the experimental part: To prepare a stock solution of curcumin, 100 mg of commercial turmeric powder was suspended in 10 mL of ethanol and vortex and kept for inversion for 2 hours. The tube was closed and covered with aluminum foil to prevent the degradation of curcumin by oxidation and UV light. Next, the suspension was centrifuged at 13200 rpm for 30 minutes to separate the insoluble particles form the ethanol solubilized curcumin. The supernatant was carefully collected and this was used as a stock solution of curcumin in ethanol. The stock solution was adjusted with ethanol so that a 100 x dilution of this stock solution in MQ-Water gave an absorbance of 2±0.1 at 420 nm, when measured immediately after the dilution. If stored at ambient conditions, the absorbance decreases rapidly due to degradation of curcumin by oxidation and light.
To load curcumin 10 μL of curcumin stock solution was added to 990 μL of buffer (±lactase) which was used for encapsulation. The loaded curcumin was not removed by repeated washing and this indicated good encapsulation and stabilization. The microcapsule suspension with encapsulated curcumin appeared yellow.

For data set [2] the following is noted: cited from earlier work; for pKsp: comparison values.

As for `COc1cc(/C=C/C(=O)CC(=O)/C=C/c2ccc(O)c(OC)c2)ccc1O` [curcumin], in data set [1] (encapsulated in CaP particles stabilized by oligo-CGMP or in liposomes, versus storage at ambient conditions), the increase of half-life is 5-10 times. For the same molecule, the “stability as indicated by half and quarter-life” value in data set [1] (encapsulated in oligo-CGMP micelles) is “significantly increased”.
Regarding `O=C([O-])[O-].[Ca+2]` [calcium carbonate], the pKsp in data set [2] is listed as 8.47.
For `O=P([O-])([O-])[O-].O=P([O-])([O-])[O-].[Ca+2].[Ca+2].[Ca+2]` [CaP, Ca3(PO4)2], the Ksp in data set [2] (25° C.) is 2.07×10^−33.
Take `[Ca+2].[OH-].[OH-]` [calcium hydroxide]: the pKsp in data set [2] is given as 5.3.

The values are drawn from US11246320B2, “Casein glycomacropeptide (CGMP) oligomers” (Chr. Hansen A/S, priority 2017, dated 2022).
